Article PMC12040169 (PLOS Biology, 2025)

assay: in vitro; conditions: human, hela cells, % viability

Compared with CCOC(=O)c1cn(CCSCC)cc(Oc2ccccc2)c1=O [CBK307244], Cc1cc(=O)n2ncn(CC(=O)NCCOc3ccccc3)c2c1 [CBK305823] is lower in viability at 28.5 h, 10 µM: 115% for the first, 99.3% for the second.

Going from COc1cccc(C2CCCN2C(=O)CC2CCN(C(=O)CC3CCCCC3)CC2)c1 (stereo not shown) [CBK286264] to Cc1nc2cccnc2n1C1CCN(C(=O)NC2CCCCC2)CC1 [CBK283637], the viability at 28.5 h, 10 µM falls from 98.4% to 88.5%.

Going from Cc1csc(C(Cc2ccsc2)NC(=O)C2CCCO2)n1 (stereo not shown) [CBK285122] to CN(C(=O)C1CCCO1)c1nc2c(s1)CCc1occc1-2 (stereo not shown) [CBK283483], the viability at 28.5 h, 10 µM falls from 107% to 88.8%.

First: Cn1nc(-c2ccc(Cl)cc2)cc1NC(=O)Cn1nnc(-c2ccc(F)cc2)n1 [CBK295203]
Second: Cc1ccc2nc(-c3ccc(NC(=O)CSc4nc(-c5ccccc5)cc(=O)[nH]4)cc3)sc2c1 [CBK265861]
The viability at 28.5 h, 10 µM of the first is higher: 82.7% for the first, 78.5% for the second.

Going from CN(C)S(=O)(=O)c1ccc(C(=O)C2=C(O)C(=O)N(CCN3CCOCC3)C2c2ccccc2)cc1 (stereo not shown) [CBK264540] to O=C(C1=C(O)C(=O)N(CCCn2ccnc2)C1c1cccc([N+](=O)[O-])c1)c1cccs1 (stereo not shown) [CBK264591], the viability at 28.5 h, 10 µM falls from 111% to 95.9%.

Going from Cc1nn(CC(=O)NCC(c2cccnc2)N2CCOCC2)c(C)c1Cl (stereo not shown) [CBK304659] to O=C(CCCn1ccnc1)NC(Cc1ccsc1)c1cccnc1 (stereo not shown) [CBK285158], the viability at 28.5 h, 10 µM falls from 118% to 94.9%.

Going from CC(=O)N(C)c1ccc(NC(=O)c2ccccc2C(=O)O)cc1 [CBK270693] to Cc1ccc(C(=O)O)c(NC(=O)c2ccccc2F)c1 [CBK126744], the viability at 28.5 h, 10 µM rises from 97.9% to 98.9%.

Going from Fc1ccc(Oc2nccnc2N2CCN(Cc3ccc(Cl)cc3)CC2)cc1 [CBK083010T] to Fc1ccc(OCc2ccc(-c3nnn[nH]3)cc2)cc1 [CBK267859], the viability at 28.5 h, 10 µM rises from 80.4% to 106%.

Compared with Cc1n[nH]c(C)c1CC(=O)N1CCCC(c2cc3ccccc3cn2)C1 (stereo not shown) [CBK285018], Cc1ccc(C(=O)Nc2nc(C)c(-c3n[nH]c(=S)n3C)s2)cn1 [CBK295327] is lower in viability at 28.5 h, 10 µM: 103% for the first, 91.8% for the second.

Compared with CC(C)(C)OC(=O)NC1CCN(C(=O)Nc2ccc(OCc3ccccc3)cc2)CC1 [CBK086602], COc1ccccc1NC(=O)C1CCN(C(=O)OC(C)(C)C)CC1 [CBK296746] is lower in viability at 28.5 h, 10 µM: 98.4% for the first, 90.5% for the second.

First: O=C(CSc1cccs1)Nc1nccs1 [CBK019601]
Second: N#Cc1ccc(-c2cccs2)nc1SCC(=O)Nc1ccc([N+](=O)[O-])cc1 [CBK066850]
The viability at 28.5 h, 10 µM of the first is higher: 88.7% for the first, 87.5% for the second.

Compared with Cc1ccc(CN(CCCn2ccnc2)Cc2nccn2C)s1 [CBK283137], Cc1ccc(CN(CCCN(C)C)Cc2nccn2C)o1 [CBK282481] is higher in viability at 28.5 h, 10 µM: 91.8% for the first, 105% for the second.

Compared with O=C(NC1CCCCC1)c1cc(Br)cnc1NCc1cccnc1 [CBK076439], O=C(NCC1CCOCC1)c1cc(-c2cccnc2)cnc1NCc1ccc2c(c1)OCO2 [CBK154825] is higher in viability at 28.5 h, 10 µM: 91% for the first, 104% for the second.

Compared with COc1ccc2[nH]c3c(c2c1)CCOC31CCN(C(=O)CC(C)CC(=O)O)CC1 (stereo not shown) [CBK047197], COc1ccc2[nH]c3c(c2c1)CCNC31CCN(C(=O)NC(C)(C)C)CC1 [CBK047069] is lower in viability at 28.5 h, 10 µM: 100% for the first, 97.4% for the second.

First: Cc1ccc(S(=O)(=O)NCCc2cn3ccc(C)cc3n2)cc1 [CBK287630]
Second: Cc1ccc(S(=O)(=O)NCCc2ccccn2)s1 [CBK269223]
The viability at 28.5 h, 10 µM of the first is higher: 103% for the first, 102% for the second.

Compared with FC(F)(F)c1cccc(OCCN2CCOCC2)c1 [CBK269669C], O=[N+]([O-])c1ccc(NCCNc2nc3ccccc3nc2N2CCOCC2)cc1 [CBK266342] is higher in viability at 28.5 h, 10 µM: 96.8% for the first, 107% for the second.

Going from CCn1ncc(CN2CCCC(CCC(=O)N3CCN(C)CC3)C2)c1C (stereo not shown) [CBK306951] to CN1CCN(C(=O)c2c(NS(=O)(=O)/C=C/c3ccccc3)sc3c2CCCC3)CC1 [CBK050417], the viability at 28.5 h, 10 µM rises from 80.4% to 94.3%.

Going from CCNc1nc(-c2ccsc2)cn2ccnc12 [CBK037375] to c1ccc(CNc2nc(-c3ccsc3)cn3ccnc23)cc1 [CBK037868], the viability at 28.5 h, 10 µM rises from 87.9% to 88%.

Compared with O=C(O)C1C2CCC(C2)C1C(=O)NCCCCc1ccccc1 (stereo not shown) [CBK286967], NC(=O)CC[C@H](N)C(=O)N1CC[C@@H]2NC(=O)[C@H](Cc3ccccc3)NC(=O)C3(C/C=C/C[C@@H]2C1)CCOCC3 [CBK292199] is higher in viability at 28.5 h, 10 µM: 91.1% for the first, 109% for the second.

Going from COc1ccc([C@@]23CC[C@@H](NC(=O)Nc4ccc(OC)c(C(F)(F)F)c4)C[C@@H]2N(C)CC3)cc1OC [CBK051268T] to COc1ccc(OC)c2c1cc(C(=O)NC[C@H]1CC[C@H](C(=O)O)CC1)n2C [CBK286636], the viability at 28.5 h, 10 µM falls from 107% to 86.1%.

Compared with O=C(NCc1ccco1)c1nn(-c2nc3ccccc3s2)c2ccccc12 [CBK048482], Cc1cc(C(=O)Nc2nnc(Cc3ccccc3)s2)c2ccccc2n1 [CBK295607] is lower in viability at 28.5 h, 10 µM: 97.4% for the first, 93.3% for the second.

Going from Nc1ncnc2c1nc(Br)n2[C@H]1C[C@@H](O)[C@@H](CO)O1 [CBK201240] to OC(CSc1ncnc2sc3c(c12)CCC3)Cn1cccn1 (stereo not shown) [CBK304149], the viability at 28.5 h, 10 µM falls from 103% to 72.3%.

Going from COc1ccc(OCCn2c(C(C)O)nc3ccccc32)cc1 (stereo not shown) [CBK269905] to CCN(Cc1nccn1CC)[C@H]1CCO[C@@H](c2ccccc2-c2ccc(OC)cc2)C1 [CBK285852], the viability at 28.5 h, 10 µM rises from 93.2% to 101%.

First: COCCCN(Cc1ccccn1)Cc1c(F)cccc1F [CBK282959]
Second: C[C@@H](Nc1nccnc1-c1cccc(F)c1)c1ccccc1 [CBK036733]
The viability at 28.5 h, 10 µM of the first is lower: 93.5% for the first, 98.3% for the second.

First: Cc1c(C(=O)N2CCNC(=O)C2(C)C)nnn1Cc1ccc(F)cc1F [CBK305461]
Second: Cc1ccnc(NCC2CCN(c3cc(=O)n4oc(C)cc4n3)C2)c1 (stereo not shown) [CBK305191]
The viability at 28.5 h, 10 µM of the first is lower: 80.2% for the first, 84.6% for the second.

First: Cc1cccc(NC(=O)CCC(=O)N/N=C/c2cccnc2)c1 [CBK262023]
Second: O=C(O)COc1ccc(Br)cc1/C=N/Nc1ccccn1 [CBK262369]
The viability at 28.5 h, 10 µM of the first is higher: 103% for the first, 102% for the second.

First: COC(=O)Cn1c(=O)sc2cccc(Cl)c21 [CBK026076]
Second: O=C(/C=C\c1cccs1)NC(=S)Nc1ccc([N+](=O)[O-])cc1O [CBK261231]
The viability at 28.5 h, 10 µM of the first is higher: 93.9% for the first, 89.4% for the second.

First: CN(C)c1nc(NCc2ccccc2)nc(SCC(=O)Nc2ccc(Cl)c(Cl)c2)n1 [CBK267289]
Second: COc1ccc(C(=O)Nc2ccc3c(c2)nc2n3CCN(Cc3ccccc3)C2)cc1 [CBK266820]
The viability at 28.5 h, 10 µM of the first is higher: 97% for the first, 82.5% for the second.

First: CC(C)C(=O)Nc1ccc2c(-c3ccccc3)ccnc2n1 [CBK073671]
Second: CC(Oc1ccc(-c2ccccc2)cc1)C(=O)Nc1ccc(S(N)(=O)=O)cc1 (stereo not shown) [CBK267979]
The viability at 28.5 h, 10 µM of the first is higher: 101% for the first, 87.2% for the second.

First: CC(=O)OC(C(=O)O)C(OC(C)=O)c1nc2ccccc2s1 (stereo not shown) [CBK264076]
Second: CCOC(=O)Cc1csc(SC(C)C(=O)N2CCc3ccccc3C2)n1 (stereo not shown) [CBK305586]
The viability at 28.5 h, 10 µM of the first is lower: 99.3% for the first, 99.9% for the second.

First: N=C(N)NCCc1ccc(Cl)cc1 [CBK024074G]
Second: O=C(NCCSCc1ccco1)Nc1ccc(Cl)cc1 [CBK267869]
The viability at 28.5 h, 10 µM of the first is higher: 105% for the first, 97.3% for the second.

Going from N#CC1=C(SCc2ccccc2)SC(c2ccc(O)c(O)c2)NC1=O (stereo not shown) [CBK293972] to O=C1c2ccccc2NC(c2ccccc2F)N1O (stereo not shown) [CBK288377], the viability at 28.5 h, 10 µM falls from 105% to 93.4%.

Compared with CC(=O)C1=C(O)C(=O)N(CC(=O)O)C1c1cccc([N+](=O)[O-])c1 (stereo not shown) [CBK262921], CC(=O)NCCNC(=O)c1cc(-c2cccc(S(C)(=O)=O)c2)cnc1NCC1CC1 [CBK076351] is lower in viability at 28.5 h, 10 µM: 97.4% for the first, 93.9% for the second.

First: CCc1nc2ccc(C(=O)NC3CCN(Cc4ccccc4)CC3)cn2c1N(C)CC [CBK145488]
Second: c1cncc(COc2ccnc(N3CCCN(Cc4ccc5c(c4)OCO5)CC3)n2)c1 [CBK084112]
The viability at 28.5 h, 10 µM of the first is lower: 88.3% for the first, 92.5% for the second.

First: N#Cc1cccc(S(=O)(=O)Nc2ccc(-c3nnn[nH]3)cc2)c1 [CBK155427]
Second: Cc1c(S(=O)(=O)Nc2ccc3nsnc3c2)cnn1-c1ccccc1 [CBK062229]
The viability at 28.5 h, 10 µM of the first is higher: 95.5% for the first, 87.6% for the second.

First: COc1ccc(Sc2cc3n(c(=O)n2)CCc2cc(OC)c(OC)cc2-3)cc1 [CBK291186]
Second: CC(C)(C)OC(=O)N1CCC(Sc2ccc(-c3ccco3)cc2)CC1 [CBK122552]
The viability at 28.5 h, 10 µM of the first is lower: 81.9% for the first, 85.6% for the second.

Going from COC(=O)[C@@H](C)NC(=O)[C@H]1CN(C(=O)c2cccnc2)CCN1C(=O)c1cccs1 [CBK289628] to O=C(Nc1ncc(-c2ccccc2)s1)c1csc([N+](=O)[O-])c1 [CBK298293], the viability at 28.5 h, 10 µM rises from 82.4% to 87.4%.

Compared with O=c1ccc2ccc(-c3cccc(OCc4ccccc4)c3)nc2[nH]1 [CBK073722], O=c1ccc2ccc(-c3ccsc3)nc2[nH]1 [CBK073710] is higher in viability at 28.5 h, 10 µM: 95.9% for the first, 97% for the second.

Going from CC(C)(C)NC(=O)C1C2CCC3(CC(=O)c4cc(Cl)ccc4O3)C21 (stereo not shown) [CBK284963] to COc1cc(NC(=O)CC2NC3CCCCC3NC2=O)cc(OC)c1 (stereo not shown) [CBK266597], the viability at 28.5 h, 10 µM falls from 109% to 99.1%.

First: Cc1cc(=O)n2c3c(cc(S(=O)(=O)NCC4CCCO4)cc13)CC2 (stereo not shown) [CBK307595]
Second: Cc1cccc(-c2nc(=S)c3c(n2CCCN(C)C)CCCC3)c1 [CBK268406]
The viability at 28.5 h, 10 µM of the first is higher: 103% for the first, 102% for the second.

First: Brc1ccc(C2(c3nnc(C4CC4)o3)CCOCC2)cc1 [CBK305498]
Second: O=C(NC[C@H]1CC[C@H](c2nnc(-c3ccsc3)o2)CC1)C1CC1 [CBK283361]
The viability at 28.5 h, 10 µM of the first is higher: 98.2% for the first, 85.5% for the second.

Compared with O=C1OCCN1S(=O)(=O)c1ccc(CN2CCCN(Cc3ccc(S(=O)(=O)N4CCOC4=O)cc3)CC2)cc1 [CBK024728], Cc1[nH]nc2c1C(c1ccc(Cl)cc1)N(CCc1c[nH]c3ccccc13)C2=O (stereo not shown) [CBK287919] is higher in viability at 28.5 h, 10 µM: 87.1% for the first, 114% for the second.

First: CNC(=O)c1ccc(-c2cc(C)cs2)nc1N(C)C [CBK106150]
Second: COC(C)CN(C)C(=O)c1oc2cc(C)ccc2c1C (stereo not shown) [CBK282043]
The viability at 28.5 h, 10 µM of the first is lower: 86.8% for the first, 88.1% for the second.

Compared with CCn1c(CC2CCN(c3nc(C)cc(C)c3C#N)CC2)nn(C)c1=O [CBK307027], Oc1ccccc1-c1n[nH]c(=S)n1-c1ccc(OC(F)(F)F)cc1 [CBK288384] is lower in viability at 28.5 h, 10 µM: 111% for the first, 85.9% for the second.
